GI50 data for 20 molecules are collected here from US11753404B2, “Aminothiazole compounds as c-Kit inhibitors” (Ariad Pharmaceuticals, Inc., priority 2016, dated 2023).

Holding throughout (experiment): c-Kit assay: Ba/F3 KIT mutant cell viability (Cell Titer-Glo, 72 hours)
Common to all, as to type: cell-based
Holding throughout (settings): viability after 72 hours
In general terms: Cellular ATP, detected with luciferase, serves as a proxy for viable cell number.

One test addresses T1, BAF3 FL KIT EX11DEL (Homo sapiens, UniProt P10721, cells depend on it, form not given).
T1 construct: BAF3 FL KIT EX11DEL
The procedure:
(§1) Generation of DBa/F3 KIT Mutant Engineered Cell Lines
(§2) KIT cDNAs were synthesized by GenScript and cloned into the pLVX-IRES-Puro vector (Clontech). Viral particles were produced by transfecting pLVX-IRES-puro vectors containing KIT mutant genes into HEK293 cells (Invitrogen) using the Trans-Lentiviral ORF Packaging Kit (Thermo Scientific). 48 hours post-transfection, virus-containing supernatants were harvested and incubated for another 48-72 hours with parental Ba/F3 cells (DSMZ) in the presence of 10 ng/mL IL-3 (R&D Systems). Transduced Ba/F3 cells were then selected by IL-3 withdrawal and puromycin (0.5-1 μg/mL, Invitrogen).
(§3) Cell lines (e.g., EX11DEL, EX11DEL/D816H, EX11DEL/T670I, and EX11DEL/V654A) were plated into 384 well plates using RPMI 1640 supplemented with 10% FBS at densities that produced linear growth and incubated at 37° C. in 5% (v/v) CO2. Cells were treated with eight concentrations of compound over a 4-fold dilution (10 μM to 0.61 nM) and viability was assessed using Cell Titer-Glo assay (Promega) after 72 hours. Data were plotted as percent viability relative to vehicle-treated cells. Dose-responses curves were generated and used to calculate IC50 values.

In test [1] the target is T2, BAF3 FL KIT EX11DEL/D816H (Homo sapiens, UniProt P10721, D816H, cells depend on it, form not given).
T2 construct: BAF3 FL KIT EX11DEL/D816H
As to the method:
as §1, §2, §3

Test [2] deals with T3, BAF3 FL KIT EX11DEL/T670I (Homo sapiens, UniProt P10721, T670I, cells depend on it, form not given).
T3 construct: BAF3 FL KIT EX11DEL/T670I
The procedure: as §1, §2, §3

For test [3], the target named is T4, BAF3 FL KIT EX11DEL/V654A (Homo sapiens, UniProt P10721, V654A, cells depend on it, form not given).
T4 construct: BAF3 FL KIT EX11DEL/V654A
As to the method:
as §1, §2, §3

T4 sequence (P10721 with tags, fused parts or gaps DEL557-558/V654A, form open): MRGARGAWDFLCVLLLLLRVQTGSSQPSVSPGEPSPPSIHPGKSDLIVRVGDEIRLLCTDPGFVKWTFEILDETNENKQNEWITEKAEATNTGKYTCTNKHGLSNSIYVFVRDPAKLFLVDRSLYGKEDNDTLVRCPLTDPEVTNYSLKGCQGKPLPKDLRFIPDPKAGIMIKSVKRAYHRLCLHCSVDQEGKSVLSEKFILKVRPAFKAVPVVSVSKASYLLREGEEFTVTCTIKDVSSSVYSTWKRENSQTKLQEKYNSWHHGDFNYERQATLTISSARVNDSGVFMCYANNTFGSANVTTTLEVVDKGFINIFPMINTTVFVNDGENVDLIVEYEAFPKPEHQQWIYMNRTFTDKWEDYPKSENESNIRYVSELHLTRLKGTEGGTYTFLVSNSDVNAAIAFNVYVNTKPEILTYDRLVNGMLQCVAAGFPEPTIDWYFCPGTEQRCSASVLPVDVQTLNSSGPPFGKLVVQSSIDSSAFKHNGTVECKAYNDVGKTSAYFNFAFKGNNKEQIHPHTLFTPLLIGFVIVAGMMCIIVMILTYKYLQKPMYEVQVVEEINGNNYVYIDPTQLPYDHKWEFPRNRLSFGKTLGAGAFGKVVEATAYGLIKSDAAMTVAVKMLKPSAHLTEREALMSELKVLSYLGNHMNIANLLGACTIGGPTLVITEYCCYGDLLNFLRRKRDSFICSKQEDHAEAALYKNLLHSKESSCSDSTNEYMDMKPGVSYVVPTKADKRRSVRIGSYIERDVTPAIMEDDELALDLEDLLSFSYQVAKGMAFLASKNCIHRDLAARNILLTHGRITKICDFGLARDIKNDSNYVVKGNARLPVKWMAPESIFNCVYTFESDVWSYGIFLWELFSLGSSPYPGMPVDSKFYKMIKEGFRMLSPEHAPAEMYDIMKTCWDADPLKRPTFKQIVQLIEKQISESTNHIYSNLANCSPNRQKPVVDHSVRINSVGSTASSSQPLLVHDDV
T2 sequence (P10721 with tags, fused parts or gaps DEL557-558/D816H, form open): as the sequence (P10721 with tags, fused parts or gaps DEL557-558/V654A, form open) above, with A652V, D814H counted along it
T3 sequence (P10721 with tags, fused parts or gaps DEL557-558/T670I, form open): as the sequence (P10721 with tags, fused parts or gaps DEL557-558/V654A, form open) above, with A652V, T668I counted along it
T1 sequence (P10721 with tags, fused parts or gaps DEL557-558): as the sequence (P10721 with tags, fused parts or gaps DEL557-558/V654A, form open) above, with A652V counted along it

On to `CNCCN(C)C(=O)Nc1ncc(C#Cc2cc(C(=O)Nc3cc(C(F)(F)F)ccn3)ccc2C)s1` [I-28, 4-methyl-3-((2-(3-methyl-3-(2-(methylamino)ethyl)ureido)thiazol-5-yl)ethynyl)-N-(4-(trifluoromethyl)pyridin-2-yl)benzamide], for which the GI50 (in general, the concentration at which growth is held to half of that of the control) at BAF3 FL KIT EX11DEL was less than 0.01 µM; in test [1] it was 0.01 to 0.05 µM; in test [2] it was 0.01 to 0.05 µM; in test [3] it was 0.01 to 0.05 µM.
For the molecule `Cc1ccc(C(=O)Nc2cc(C(F)(F)F)ccn2)cc1C#Cc1cnc(NC(=O)N(C)C2CCN(C)CC2)s1` [I-29, 4-methyl-3-((2-(3-methyl-3-(1-methylpiperidin-4-yl)ureido)thiazol-5-yl)ethynyl)-N-(4-(trifluoromethyl)pyridin-2-yl)benzamide], the GI50 on BAF3 FL KIT EX11DEL was less than 0.01 µM; in test [1] it was less than 0.01 µM; in test [2] it was less than 0.01 µM; in test [3], 0.01 to 0.05 µM.
Consider `COCCNC(=O)Nc1ncc(C#Cc2cc(C(=O)Nc3cc(C(F)(F)F)ccn3)ccc2C)s1` [I-5, 3-((2-(3-(2-methoxyethyl)ureido)thiazol-5-yl)ethynyl)-4-methyl-N-(4-(trifluoromethyl)pyridin-2-yl)benzamide], for which the concentration for 50% growth inhibition (GI50) at BAF3 FL KIT EX11DEL was less than 0.01 µM; in test [1], 0.01 to 0.05 µM; in test [2], 0.01 to 0.05 µM; in test [3], 0.01 to 0.05 µM.
Take `Cc1ccc(NC(=O)c2cc(C(F)(F)F)ccn2)cc1C#Cc1cnc(NC(=O)N(C)CCN(C)C)s1` [I-58, N-(3-((2-(3-(2-(dimethylamino)ethyl)-3-methylureido)thiazol-5-yl)ethynyl)-4-methylphenyl)-4-(trifluoromethyl)picolinamide]: the concentration for 50% growth inhibition (GI50) was less than 0.01 µM on BAF3 FL KIT EX11DEL, 0.05 to 0.1 µM in test [1], 0.1 to 10 µM in test [2] and 0.05 to 0.1 µM in test [3].
Regarding `COCCN(C)C(=O)Nc1ncc(C#Cc2cc(NC(=O)c3cc(C(F)(F)F)ccn3)ccc2F)s1` [I-62, N-(4-fluoro-3-((2-(3-(2-methoxyethyl)-3-methylureido)thiazol-5-yl)ethynyl)phenyl)-4-(trifluoromethyl)picolinamide], the GI50 at BAF3 FL KIT EX11DEL was less than 0.01 µM; in test [1], 0.01 to 0.05 µM; in test [2], less than 0.01 µM; in test [3] it was 0.01 to 0.05 µM.
On to `Cc1ccc(C(=O)Nc2cc(C(F)(F)F)ccn2)cc1C#Cc1cnc(NC(=O)NCCN2CCN(C)CC2)s1` [I-14, 4-methyl-3-((2-(3-(2-(4-methylpiperazin-1-yl)ethyl)ureido)thiazol-5-yl)ethynyl)-N-(4-(trifluoromethyl)pyridin-2-yl)benzamide], for which the GI50 at BAF3 FL KIT EX11DEL is less than 0.01 µM; in test [1] it was 0.01 to 0.05 µM; in test [2], 0.01 to 0.05 µM; in test [3], 0.01 to 0.05 µM.
For `COCCN(C)C(=O)Nc1ncc(C#Cc2cccc(NC(=O)c3cc(C(F)(F)F)ccn3)c2)s1` [I-61, N-(3-((2-(3-(2-methoxyethyl)-3-methylureido)thiazol-5-yl)ethynyl)phenyl)-4-(trifluoromethyl)picolinamide], the concentration for 50% growth inhibition (GI50) at BAF3 FL KIT EX11DEL is less than 0.01 µM; in test [1], 0.01 to 0.05 µM; in test [2], 0.01 to 0.05 µM; in test [3], 0.01 to 0.05 µM.
`Cc1ccc(C(=O)Nc2cc(C(F)(F)F)ccn2)cc1C#Cc1cnc(NC(=O)N2CCC(C)CC2)s1` [I-25, 4-methyl-N-(5-((2-methyl-5-((4-(trifluoromethyl)pyridin-2-yl)carbamoyl)phenyl)ethynyl)thiazol-2-yl)piperidine-1-carboxamide]: the GI50 (on BAF3 FL KIT EX11DEL; in test [1]; in test [2]; in test [3]) was 0.01 to 0.05 µM in each case.
As for `COCCN(C)C(=O)Nc1ncc(C#Cc2cc(NC(=O)c3cc(C(F)(F)F)ccn3)ccc2C)s1` [I-54, N-(3-((2-(3-(2-methoxyethyl)-3-methylureido)thiazol-5-yl)ethynyl)-4-methylphenyl)-4-(trifluoromethyl)picolinamide], the 50% growth inhibitory concentration (GI50) at BAF3 FL KIT EX11DEL is less than 0.01 µM; in test [1], 0.01 to 0.05 µM; in test [2], 0.01 to 0.05 µM; in test [3] it was 0.01 to 0.05 µM.
As to `NC(=O)Nc1ncc(C#Cc2ccc(F)c(C(=O)Nc3cc(C(F)(F)F)ccn3)c2)s1` [I-43, 2-fluoro-N-(4-(trifluoromethyl)pyridin-2-yl)-5-((2-ureidothiazol-5-yl)ethynyl)benzamide], the GI50 was less than 0.01 µM on BAF3 FL KIT EX11DEL, 0.1 to 10 µM in test [1], 0.1 to 10 µM in test [2] and 0.1 to 10 µM in test [3].
Consider `Cc1ccc(C(=O)Nc2cc(C(F)(F)F)ccn2)cc1C#Cc1cnc(NC(=O)N(C)CCO)s1` [I-10, 3-((2-(3-(2-hydroxyethyl)-3-methylureido)thiazol-5-yl)ethynyl)-4-methyl-N-(4-(trifluoromethyl)pyridin-2-yl)benzamide], for which the GI50 (at BAF3 FL KIT EX11DEL; in test [1]; in test [2]; in test [3]) was less than 0.01 µM in each case.
With `COC(=O)Nc1ncc(C#Cc2cc(C(=O)Nc3cc(C(F)(F)F)ccn3)ccc2C)s1` [I-3, methyl (5-((2-methyl-5-((4-(trifluoromethyl)pyridin-2-yl)carbamoyl)phenyl)ethynyl)thiazol-2-yl)carbamate], the GI50 is less than 0.01 µM at BAF3 FL KIT EX11DEL, 0.01 to 0.05 µM in test [1], 0.01 to 0.05 µM in test [2] and 0.01 to 0.05 µM in test [3].
`CC(=O)N1CCN(C(=O)Nc2ncc(C#Cc3cc(C(=O)Nc4cc(C(F)(F)F)ccn4)ccc3C)s2)CC1` [I-37, 4-acetyl-N-(5-((2-methyl-5-((4-(trifluoromethyl)pyridin-2-yl)carbamoyl)phenyl)ethynyl)thiazol-2-yl)piperazine-1-carboxamide]: the GI50 (on BAF3 FL KIT EX11DEL; in test [1]; in test [2]; in test [3]) was less than 0.01 µM throughout.
In the case of `CNC(=O)Nc1ncc(C#Cc2ccc(F)c(C(=O)Nc3cc(C(F)(F)F)ccn3)c2)s1` [I-42, 2-fluoro-5-((2-(3-methylureido)thiazol-5-yl)ethynyl)-N-(4-(trifluoromethyl)pyridin-2-yl)benzamide], the GI50 on BAF3 FL KIT EX11DEL is less than 0.01 µM; in test [1], 0.1 to 10 µM; in test [2], 0.1 to 10 µM; in test [3] it was 0.1 to 10 µM.
In the case of `Cc1ccc(C(=O)Nc2cc(C(F)(F)F)ccn2)cc1C#Cc1cnc(NC(=O)NCCN2CCCC2)s1` [I-12, 4-methyl-3-((2-(3-(2-(pyrrolidin-1-yl)ethyl)ureido)thiazol-5-yl)ethynyl)-N-(4-(trifluoromethyl)pyridin-2-yl)benzamide], the GI50 is less than 0.01 µM on BAF3 FL KIT EX11DEL, 0.01 to 0.05 µM in test [1], 0.05 to 0.1 µM in test [2] and 0.05 to 0.1 µM in test [3].
Regarding `Cc1ccc(NC(=O)c2cc(C(F)(F)F)ccn2)cc1C#Cc1cnc(NC(=O)N(C)C2CCN(C)CC2)s1` [I-53, N-(4-methyl-3-((2-(3-methyl-3-(I-methylpiperidin-4-yl)ureido)thiazol-5-yl)ethynyl)phenyl)-4-(trifluoromethyl)picolinamide], the 50% growth inhibitory concentration (GI50) in test [1] is 0.01 to 0.05 µM; in test [2] it was 0.05 to 0.1 µM; in test [3], 0.01 to 0.05 µM.
In the case of `Cc1ccc(C(=O)Nc2ccc(CN3CCN(C)CC3)c(C(F)(F)F)c2)cc1C#Cc1cnc(NC(=O)C2CC2)s1` [I-50, 3-((2-(cyclopropanecarboxamido)thiazol-5-yl)ethynyl)-4-methyl-N-(4-((4-methylpiperazin-1-yl)methyl)-3-(trifluoromethyl)phenyl)benzamide], the GI50 was 0.01 to 0.05 µM on BAF3 FL KIT EX11DEL, 0.01 to 0.05 µM in test [1], 0.01 to 0.05 µM in test [2] and 0.1 to 10 µM in test [3].
As for `Cc1ccc(C(=O)Nc2cc(C(F)(F)F)ccn2)cc1C#Cc1cnc(NC(=O)NCCN2CCOCC2)s1` [I-6, 4-methyl-3-((2-(3-(2-morpholinoethyl)ureido)thiazol-5-yl)ethynyl)-N-(4-(trifluoromethyl)pyridin-2-yl)benzamide], the concentration for 50% growth inhibition (GI50) on BAF3 FL KIT EX11DEL is less than 0.01 µM; in test [1], 0.01 to 0.05 µM; in test [2], 0.01 to 0.05 µM; in test [3], 0.01 to 0.05 µM.
For `Cc1ccc(C(=O)Nc2cc(C(F)(F)F)ccn2)cc1C#Cc1cnc(NC(=O)N2CCNCC2)s1` [I-30, N-(5-((2-methyl-5-((4-(trifluoromethyl)pyridin-2-yl)carbamoyl)phenyl)ethynyl)thiazol-2-yl)piperazine-1-carboxamide], the GI50 on BAF3 FL KIT EX11DEL was less than 0.01 µM; in test [1], 0.01 to 0.05 µM; in test [2], 0.01 to 0.05 µM; in test [3], 0.01 to 0.05 µM.
Turning to `Cc1ccc(NC(=O)c2cc(C(F)(F)F)ccn2)cc1C#Cc1cnc(NC(=O)N(C)CCN2CCN(C)CC2)s1` [I-55, N-(4-methyl-3-((2-(3-methyl-3-(2-(4-methylpiperazin-1-yl)ethyl)ureido)thiazol-5-yl)ethynyl)phenyl)-4-(trifluoromethyl)picolinamide], the figures for the GI50 in test [1], in test [2] and in test [3] were 0.01 to 0.05 µM, 0.05 to 0.1 µM and 0.01 to 0.05 µM, respectively.
